Measurements taken from US20020055174A1, “Complex for transferring an anionic substance of interest into a cell” (priority 2000, published 2002).
Entries after “also recorded” stand apart in the source; their conditions may differ. Bridge positions count the residues as written; N and C are the ends. Ends that are not written are not given here.

Key:
[1] = Liposome leakage assay, POPC/cholesterol 3:2 liposomes; conditions: POPC/chol 3:2 liposomes
Description: Increasing amounts of the indicated peptides were incubated with POPC/Cholesterol (3:2 mol/mol) liposomes for 30 min at RT. Emitted fluorescence was plotted against peptide concentration. […] B) Liposome leakage activity with complexes of ppTG1 and the plasmid pTG11236 at pH7.
1-Palmitoyl-2-Oleoyl-phosphatidylcholine (POPC) liposomes were prepared by the repeated freeze-thaw method followed by extrusion (Olson et al., 1979, Biochim. Biophys. Acta 557, 19-23). Ten μ-moles of POPC in chloroform were placed in a glass tube and solvent was evaporated under reduced pressure using a Labconco Rapidvap vortex evaporator (Uniequip, Germany). The resulting lipid film was hydrated with 0.5 ml of an aqueous solution of calcein (lOOmM calcein, 3.75 eq. NaOH, 50mM NaCl). The lipid suspension was sonicated until the solution became clear using a sonic water bath (Bransonic 221, Branson Ultrasonics Corp., USA). Five cycles of freeze-thaw were performed before liposomes were extruded by 4 passages through 200 nm pore diameter polycarbonate membranes (Nuclepore, Costar, Mass., USA). Free calcein was removed from calcein encapsulated into liposomes by gel exclusion chromatography using a Sephadex G-50 column (3 cm×14 cm) and a 200 mM NaCl, 25 mM HEPES, pH 7.3 solution as the elution buffer. The final lipid concentration was determined by a phosphorus assay (Bartlett, 1959, J. Biol. Chem. 234, 466-469). Liposomes' diameter was determined by dynamic laser light scattering using a Coulter N4 Plus submicron particle sizer (Coultronics France S. A, France). Measurements were performed within a 3 nm-10000 nm size window with a fixed 90° scattered light angle.
The liposome leakage assay was carried out as described in Planck et al. (1994, J. Biol. Chem. 269, 12918-12924). The liposome stock solution was diluted to a lipid concentration of 45 μM in 1.8× assay buffer (360 mM NaCl, 36 mM sodium citrate, pH 5 and pH 7). A 1:5 serial dilution of the tested peptide was carried out in a 96-well microtiter plate by transferring 20 μl of the peptide solution from one well to the next well and diluting with 80 μl H2O. 100 μl of the liposome solution was added in each well (final lipid concentration: 25 μM) and, after 30 min at room temperature, was assayed for fluorescence at 535 nm (excitation: 485 nm) on a microtiter plate fluorescence spectrometer (WALLAC, 1420 multilabel counter Victor). These conditions are appropriate to analyze fluorescein and as close as possible to the appropriate excitation/ emission profile of calcein (495 nm /515 nm). The value for 100% leakage was obtained by addition of 1 μl of a 10% Triton X-100 solution. Leakage activity was plotted against peptide concentration.
Liposome leakage activities were analyzed on liposomes consisting of POPC and cholesterol at a molar ratio of 3:2 (mol/mol).
Complexes of ppTG1 with plasmid DNA pTG11236 were tested for liposome leakage activity on POPC/chol 3:2 liposomes.
The series of ppTG1 derivatives as they are listed in Materials and Methods was tested for liposome leakage activity on POPC/chol 3:2 liposomes at pH7.

[2] = system: HeLa cells; test: Transfection in vitro, luciferase plasmid pTG11236; type: cell-based; conditions: for transfection / gene transfer efficiency in vitro, in words: HeLa cells, 50 ng pTG11236, increasing charge ratios, day 1
Description: Cells were plated on 24 well plates at a density of 4×10^4 (293-EBNA ) or 7×10^4 (HeLa, Renca) cells/well in DMEM supplemented with 10% FCS. The next day, the medium was replaced by 200 μl serum-free DMEM and plasmid (pTG11056 or pTG11236)/peptide complexes or plasmid/peptide/lipid complexes were prepared in 30 μl 0.9% NaCl or 5% glucose. After 20 min at room temperature these complexes were added to the cells which were then incubated for 2-3 h at 37° C. and 5% CO2 before 1 ml serum-containing DMEM was added. Approximately 20-hours later, cells were lysed by addition of 100 μl 1× Promega lysis buffer, 20 μl of the lysates were analysed for luciferase activity. Proteins were quantified with the bicinchonic acid (BCA) colorimetric method (Smith, Anal. Biochem. 150 (1985), 76-85).
In another experiment, 7×10^4 HeLa cells, seeded on 24-well plates the day before transfection, were transfected with 0.5 μg or 0.05 μg pTG11236, complexed with Lipofectin or ppTG1. The plasmid/peptide complexes were prepared in 30 μl of 5% glucose or 0.9% NaCl and added to the cells (200 μl serum-free medium) after 20 min at room temperature. Serum-containing medium was added after 3 h, the cells were harvested the next day.
A comparison of the effect on transfection efficiency of ppTG1 and JTS-1-K13 was carried out in HeLa cells. Complexes of 0.5 μg or 0.05 μg pTG11236 were formed with increasing amounts the respective peptide.
A comparison of ppTG1 and KALA was carried out in HeLa and CHO cells. 5×10^4 cells were seeded on 24 well plates. The next day, cells were transfected with 500 ng and 50 ng of pTG11236, complexed with ppTG1 or KALA in 30 μl 0.9% NaCl. The charge ratio +/− varied from 1, 2, 3, 4, 7 to 10. Cells were harvested 20 h after transfection and lysis was obtained in 100 μl Promega lysis buffer. Luciferase activity and total protein concentrations in 20 μl were determined.
HeLa cells were seeded at a density of 6×10^4 cells on 24 well plates. The next day, cells were incubated with 200 μl serum-free medium, 30 μl of plasmid (50 ng)/peptide/lipid mixtures were added and incubated for 3 h at 37° C. in 5% CO2. 1 ml of DMEM+10% FCS was then added. The next day, the medium was removed and cells were washed with 500 μl of PBS and subsequently treated with 100 μl of Promega lysis buffer. Plates were stored at −80° C. until luciferase activity was measured of 20 μl of the cell lysate. The protein assay was performed using the Pierce BCA kit.
JTS1 was dissolved to 1 mg/ml in 1 mM NaOH and mixed with DNA diluted in 5% glucose. ppTG1 was then added to this solution. The pcTG90/DOPE ppTG1 mixtures were prepared as described in Example 6. Transfection assays were performed on HeLa cells with 50 ng of plasmid as described in Example 6.
The series of ppTG1 derivatives listed in Material and Methods were tested for their gene transfer efficiencies in Hela cells. 6×10^4 cells were transfected with 50 ng pTG11236 complexed with increasing amounts of peptide. Luciferase activity was analyzed day 1 after transfection. The results are shown in FIG. 10B (ppTG20, ppTG21), FIG. 10C(ppTG25, ppTG26, ppTG27), FIG. 10D (ppTG28 to ppTG33), FIG. 10E (PEG-ppTG1 and PEG-ppTG20), FIG. 10F (ppTG22 to ppTG24) and FIG. 10G (ppTG20-D).

[3] = system: plasmid pTG11236; test: Gel retardation assay (DNA binding)
Description: 3μg of the plasmid pTG11236 were incubated with increasing amounts of the respective peptide in a final volume of 30 μl with 0.9% NaCl. After 20 min of incubation at room temperature, 6 μl 5× loading buffer (glycerol and bromphenol blue in TAE buffer) were added and 10 μl of these solutions were analyzed on a 1% agarose gel in the presence of ethidium bromide.
The ability of ppTG1 peptide to complex DNA was analyzed by gel retardation assays. […] After 20 minutes incubation at room temperature, loading buffer was added and 10 μl of the resulting solution were analyzed on a 1% agarose gel.
ppTG1 derivatives as they are indicated in Materials and Methods, were tested for their capacity to bind plasmid DNA by gel retardation assays.

[4] = pH 5 vs pH 7; cited from earlier work
[5] = system: B6SJL mice; conditions: for gene transfer efficiency in the lung, in words: i.v., 50 or 60 μg pTG11236, day 1
Description: Indicated amounts of the luciferase expression plasmid pTG11236 were mixed with ppTG1 and /or pcTG90/DOPE. The resulting formulations were injected intramuscularly(30 μl), intravenously(250 μl) into mice or intratumorally (Renca tumors, 100 μgl). Muscles, tumors or organs were recovered at the indicated points of time, macerated and tested for luciferase activity with the luciferase assay kit from Promega.
60 μg or 30 μg of the plasmid pTG11236 were mixed with peptide ppTG1 and/or with a pcTG90/DOPE 1:2 mixture in 250 μl 5% glucose. After 20 min incubation at room temperature, the complexes were intravenously injected into B6SJL mice. Mice were sacrificed at day 1. The lungs were recovered, total protein was extracted and luciferase activity was analysed.
The potential of gene transfer with mono-component peptide vectors was investigated in vivo. Fifty or sixty μg of the luciferase expression plasmid pTG11236 were complexed with pcTG90/DOPE (1:2) [+/−] 10 in 250 μl 5% glucose (Meyer et al. 2000). The resulting lipoplex vector served as reference for gene transfer studies with pTG11236 complexed with ppTG1, ppTG20 and ppTG32 in 250 μl 5% glucose. Five mice per group were intravenously injected, the animals were sacrificed at day 1 after injection. Lungs were tested for luciferase activity.

| Substance | liposome leakage activity, in words ([1]; pH7) | transfection / gene transfer efficiency in vitro, in words [2] | further results |
| --- | --- | --- | --- |
| CGLFKALLKLLKSLWKLLLKA [ppTG23] | slightly reduced membrane destruction | – | – |
| CGLFKALLKLLKSLWKLLLKAC (cysteine pairing not given here) [ppTG24] | slightly reduced membrane destruction | – | – |
| GIFKAIIKIIKSIWKIIIKA [ppTG30] | – | diminished gene transfer efficiency in vitro; also recorded: reduced the efficiency of gene transfer | – |
| GIFRAIIRIIRSIWRIIIRA [ppTG31] | slightly reduced liposome leakage activity | diminished gene transfer efficiency in vitro; also recorded: reduced the efficiency of gene transfer | – |
| GLFEALLELLESLWELLLEA [reference compound] | reduced | – | liposome leakage activity, in words ([1]; pH5): high lysis activity; retardation of plasmid DNA ([3]; 3 μg pTG11236 and 0.1 μg to 10 μg peptide): not observed; lysis of calcein containing phosphatidylcholine liposomes [4]: capable of lysing calcein containing phosphatidylcholine liposomes at pH 5, more efficiently than at a pH 7 |
| GLFHALLHLLHSLWHLLLHA | comparable to ppTG1 | strongly reduced | DNA binding, in words ([3]; pH5): binds plasmid DNA at pH5; also recorded: can bind DNA at pH5 |
| GLFKKLLKLLKKLWKLLLKA [ppTG28] | slightly reduced liposome leakage activity | comparable to ppTG1 and ppTG20; also recorded: did not change transfection efficiencies | – |
| GLFRALLRLLRSLWRLLLRA [ppTG20] | – | – | toxicity in vivo, in words ([5]; i.v. injection of peptide/pTG11236 complexes): less toxic than ppTG1 |
| GLFRRLLRLLRRLWRLLLRA [ppTG29] | slightly reduced liposome leakage activity | comparable to ppTG1 and ppTG20; also recorded: did not change transfection efficiencies | – |
| GVFKAVVKVVKSVWKVVVKA [ppTG32] | diminished liposome leakage activity; also recorded: significantly reduced liposome leakage activity | diminished gene transfer efficiency in vitro | gene transfer efficiency in the lung, in words [5]: drastically reduced gene transfer efficiency; also recorded: did not lead to detectable reporter gene expression |
| GVFRAVVRVVRSVWRVVVRA [ppTG33] | diminished liposome leakage activity; also recorded: significantly reduced liposome leakage activity | diminished gene transfer efficiency in vitro | – |
| Gly-Leu-Phe-Arg-Ala-Leu-Leu-Arg-Leu-Leu-Arg-Ser-Leu-Trp-Arg-Leu-Leu-Leu-Arg-Ala (GLFRALLRLLRSLWRLLLRA; also: D-amino acids, places not given here) [ppTG20-D] | retained | retained; also recorded: as efficient as ppTG1 | – |
| Gly-Leu-Phe-Glu-Ala-Leu-Leu-Glu-Leu-Leu-Glu-Ser-Leu-Trp-Glu-Leu-Leu-Leu-Glu-Ala-Cys-Cys-Tyr-Lys-Ala-Lys-Lys-Lys-Lys-Lys-Lys-Lys-Lys--Trp-Lys-Lys-Lys-Lys-Gln-Ser (GLFEALLELLESLWELLLEACCYKAKKKKKKKKWKKKKQS; disulfide 21-22) [JTS-1-K13, JTS-1-Cystein and Cystein-K13 joined by disulfide bridge, reference compound] | impeded in calcein release | – | liposome leakage activity, in words ([1]; pH5): low level release; gene transfer efficiency in the lung, in words [5]: low; transfection ([2]; 0.05 μg plasmid DNA, FIG. 4): remains low; luciferase expression ([2]; 0.5 μg pTG11236 complexed with 1.5 μg peptide): high level of luciferase expression |
| WEAKLAKALAKALAKHLAKALAKALKACEA [reference compound] | could not liberate calcein | – | liposome leakage activity, in words ([1]; pH5): could not liberate calcein; gene transfer efficiency in the lung, in words [5]: undetectable; also recorded: inefficient; gene transfer at optimal charge ratio lower than for ppTG1 ([2]; HeLa, 500 ng pTG11236): 4 fold |
